Laboratory results: ChEMBL document CHEMBL1141633, “Synthesis and biological evaluation of chalcones as inhibitors of the voltage-gated potassium channel Kv1.3” (Bioorg Med Chem Lett, 2008)

Each compound was assayed against T1, Potassium voltage-gated channel subfamily A member 3 (Homo sapiens, UniProt P22001) (assay: Inhibition in Kv1.3 expressed in human Jurkat cells by patch clamp method).
Assay type: cell-based

T1 sequence (P22001 whole entry): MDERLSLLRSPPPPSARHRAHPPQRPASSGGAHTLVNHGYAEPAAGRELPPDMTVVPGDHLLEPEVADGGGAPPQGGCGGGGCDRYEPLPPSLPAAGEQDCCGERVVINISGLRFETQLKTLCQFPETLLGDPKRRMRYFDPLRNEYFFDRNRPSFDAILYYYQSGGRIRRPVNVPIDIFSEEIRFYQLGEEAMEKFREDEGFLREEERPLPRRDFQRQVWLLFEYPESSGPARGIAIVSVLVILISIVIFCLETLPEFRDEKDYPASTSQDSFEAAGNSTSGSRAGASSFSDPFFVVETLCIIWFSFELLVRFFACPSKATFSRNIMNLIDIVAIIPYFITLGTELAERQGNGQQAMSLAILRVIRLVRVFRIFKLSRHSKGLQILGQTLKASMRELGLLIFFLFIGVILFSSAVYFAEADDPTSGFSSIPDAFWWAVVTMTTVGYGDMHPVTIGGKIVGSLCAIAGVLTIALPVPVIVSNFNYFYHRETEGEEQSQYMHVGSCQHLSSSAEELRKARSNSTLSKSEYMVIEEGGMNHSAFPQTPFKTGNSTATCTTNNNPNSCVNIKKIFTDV

Compound	EC50 [µM]
COc1cccc(/C=C(\C)C(=O)c2c(O)c(OC)c3occc3c2OC)c1	3
COc1cccc(/C=C/C(=O)c2cc3ccoc3c(OC)c2O)c1	1.7

Continued, values first:

EC50 [µM]	Compound
2.4	COc1cccc(/C=C/C(=O)c2cc(OC)c3occc3c2OC)c1
2.4	COc1c(C(=O)/C=C/c2ccccc2)cc(OC)c2occc12
0.9	COc1cccc(/C=C/C(=O)c2c(O)c(OC)c3occc3c2OC)c1

What follows are compounds tested against T1, Potassium voltage-gated channel subfamily A member 3 (assay: Inhibition in Kv1.3 expressed in […] by patch clamp method).

EC50 [µM]	Compound
17	COc1c(C(=O)/C=C/c2ccccc2)c(O)cc2occc12
0.4	COc1c(C(=O)/C=C/c2ccccc2)c(O)c(OC)c2occc12
0.8	COc1cccc(/C=C/C(=O)c2c(O)c(OC)c3occc3c2OC)c1
